Data: the NIST ThermoML archive (doi:10.1016/j.jct.2017.03.006)

Assay: xn = mol fraction of the nth substance listed
Conditions: Liquid; for mass density: Vibrating tube method; for viscosity: Concentric cylinders viscometry

Cc1ccc(C)c(C)c1 [1,2,4-trimethylbenzene] + CCC(C)O
Conditions | mass density [kg/m3] | viscosity [mPa·s]
273.15 K, 60000 kPa, x2 = 0.1 | 917.1 | –
273.15 K, 60000 kPa, x2 = 0.1989 | 911.9 | –
273.15 K, 60000 kPa, x2 = 0.3011 | 906.2 | –
273.15 K, 60000 kPa, x2 = 0.4002 | 900.7 | –
273.15 K, 60000 kPa, x2 = 0.5001 | 894.6 | –
273.15 K, 60000 kPa, x2 = 0.5997 | 888.3 | –
273.15 K, 60000 kPa, x2 = 0.6999 | 881.3 | –
273.15 K, 60000 kPa, x2 = 0.7999 | 873.8 | –
273.15 K, 60000 kPa, x2 = 0.9 | 865.5 | –
273.15 K, 70000 kPa, x2 = 0 | 926.2 | –
273.15 K, 70000 kPa, x2 = 0.1 | 921.5 | –
273.15 K, 70000 kPa, x2 = 0.1989 | 916.2 | –
273.15 K, 70000 kPa, x2 = 0.3011 | 910.7 | –
273.15 K, 70000 kPa, x2 = 0.4002 | 905.2 | –
273.15 K, 70000 kPa, x2 = 0.5001 | 899.2 | –
273.15 K, 70000 kPa, x2 = 0.5997 | 892.8 | –
273.15 K, 70000 kPa, x2 = 0.6999 | 886 | –
273.15 K, 70000 kPa, x2 = 0.7999 | 878.4 | –
273.15 K, 70000 kPa, x2 = 0.9 | 870.2 | –
273.15 K, 80000 kPa, x2 = 0 | 930.3 | –
273.15 K, 80000 kPa, x2 = 0.1 | 925.7 | –
273.15 K, 80000 kPa, x2 = 0.1989 | 920.6 | –
273.15 K, 80000 kPa, x2 = 0.3011 | 915 | –
273.15 K, 80000 kPa, x2 = 0.4002 | 909.6 | –
273.15 K, 80000 kPa, x2 = 0.5001 | 903.5 | –
273.15 K, 80000 kPa, x2 = 0.5997 | 897.2 | –
273.15 K, 80000 kPa, x2 = 0.6999 | 890.3 | –
273.15 K, 80000 kPa, x2 = 0.7999 | 882.8 | –
273.15 K, 80000 kPa, x2 = 0.9 | 874.6 | –
273.15 K, 90000 kPa, x2 = 0 | 934.2 | –
273.15 K, 90000 kPa, x2 = 0.1 | 929.8 | –
273.15 K, 90000 kPa, x2 = 0.1989 | 924.7 | –
273.15 K, 90000 kPa, x2 = 0.3011 | 919.1 | –
273.15 K, 90000 kPa, x2 = 0.4002 | 913.7 | –
273.15 K, 90000 kPa, x2 = 0.5001 | 907.7 | –
273.15 K, 90000 kPa, x2 = 0.5997 | 901.4 | –
273.15 K, 90000 kPa, x2 = 0.6999 | 894.6 | –
273.15 K, 90000 kPa, x2 = 0.7999 | 887.1 | –
273.15 K, 90000 kPa, x2 = 0.9 | 878.9 | –
273.15 K, 100000 kPa, x2 = 0 | 938 | –
273.15 K, 100000 kPa, x2 = 0.1 | 933.7 | –
273.15 K, 100000 kPa, x2 = 0.1989 | 928.6 | –
273.15 K, 100000 kPa, x2 = 0.3011 | 923.1 | –
273.15 K, 100000 kPa, x2 = 0.4002 | 917.7 | –
273.15 K, 100000 kPa, x2 = 0.5001 | 911.7 | –
273.15 K, 100000 kPa, x2 = 0.5997 | 905.5 | –
273.15 K, 100000 kPa, x2 = 0.6999 | 898.7 | –
273.15 K, 100000 kPa, x2 = 0.7999 | 891.2 | –
273.15 K, 100000 kPa, x2 = 0.9 | 883 | –
273.15 K, 110000 kPa, x2 = 0 | 941.7 | –
273.15 K, 110000 kPa, x2 = 0.1 | 937.6 | –
273.15 K, 110000 kPa, x2 = 0.1989 | 932.5 | –
273.15 K, 110000 kPa, x2 = 0.3011 | 927 | –
273.15 K, 110000 kPa, x2 = 0.4002 | 921.6 | –
273.15 K, 110000 kPa, x2 = 0.5001 | 915.7 | –
273.15 K, 110000 kPa, x2 = 0.5997 | 909.4 | –
273.15 K, 110000 kPa, x2 = 0.6999 | 902.5 | –
273.15 K, 110000 kPa, x2 = 0.7999 | 895.1 | –
273.15 K, 110000 kPa, x2 = 0.9 | 887 | –
273.15 K, 120000 kPa, x2 = 0 | 945.2 | –
273.15 K, 120000 kPa, x2 = 0.1 | 941.3 | –
273.15 K, 120000 kPa, x2 = 0.1989 | 936.2 | –
273.15 K, 120000 kPa, x2 = 0.3011 | 930.8 | –
273.15 K, 120000 kPa, x2 = 0.4002 | 925.3 | –
273.15 K, 120000 kPa, x2 = 0.5001 | 919.5 | –
273.15 K, 120000 kPa, x2 = 0.5997 | 913.2 | –
273.15 K, 120000 kPa, x2 = 0.6999 | 906.4 | –
273.15 K, 120000 kPa, x2 = 0.7999 | 899 | –
273.15 K, 120000 kPa, x2 = 0.9 | 890.8 | –
273.15 K, 130000 kPa, x2 = 0 | 948.6 | –
273.15 K, 130000 kPa, x2 = 0.1 | 944.9 | –
273.15 K, 130000 kPa, x2 = 0.1989 | 939.9 | –
273.15 K, 130000 kPa, x2 = 0.3011 | 934.4 | –
273.15 K, 130000 kPa, x2 = 0.4002 | 929 | –
273.15 K, 130000 kPa, x2 = 0.5001 | 923.2 | –
273.15 K, 130000 kPa, x2 = 0.5997 | 916.9 | –
273.15 K, 130000 kPa, x2 = 0.6999 | 910.1 | –
273.15 K, 130000 kPa, x2 = 0.7999 | 902.7 | –
273.15 K, 130000 kPa, x2 = 0.9 | 894.6 | –
273.15 K, 140000 kPa, x2 = 0 | 952 | –
273.15 K, 140000 kPa, x2 = 0.1 | 948.2 | –
273.15 K, 140000 kPa, x2 = 0.1989 | 943.3 | –
273.15 K, 140000 kPa, x2 = 0.3011 | 937.6 | –
273.15 K, 140000 kPa, x2 = 0.4002 | 932.3 | –
273.15 K, 140000 kPa, x2 = 0.5001 | 926.7 | –
273.15 K, 140000 kPa, x2 = 0.5997 | 920.4 | –
273.15 K, 140000 kPa, x2 = 0.6999 | 913.4 | –
273.15 K, 140000 kPa, x2 = 0.7999 | 906 | –
273.15 K, 140000 kPa, x2 = 0.9 | 897.9 | –
293.15 K, 100 kPa, x2 = 0 | 875.1 | 0.888
293.15 K, 100 kPa, x2 = 0.1 | 869.3 | –
293.15 K, 100 kPa, x2 = 0.1001 | – | 0.885
293.15 K, 100 kPa, x2 = 0.2261 | – | 0.909
293.15 K, 100 kPa, x2 = 0.3 | – | 0.935
293.15 K, 100 kPa, x2 = 0.3966 | – | 1.013
293.15 K, 100 kPa, x2 = 0.5298 | – | 1.121
293.15 K, 100 kPa, x2 = 0.6001 | – | 1.25
293.15 K, 100 kPa, x2 = 0.7001 | – | 1.48
293.15 K, 100 kPa, x2 = 0.7997 | – | 1.85
293.15 K, 100 kPa, x2 = 0.9001 | – | 2.47
